{
  "source": "patent US20240238250A1",
  "about": "“METHOD OF USING PIROMELATINE FOR TREATING PARASOMNIAS ASSOCIATED WITH LOSS OF REM SLEEP ATONIA” (NEURIM PHARMACEUTICALS (1991) LTD., priority 2023, published 2024)",
  "key": {"[1]": {"test_system": "patients with primary insomnia", "experiment": "REM sleep EEG spectral power after 4-week treatment, 3-arm parallel group study versus placebo", "format": "in vivo, human", "details": "for REM EEG spectral power, Alpha power ([8; 13] Hz) / REM EEG spectral power, Beta1 power ([15.5; 20.5] Hz) / REM EEG spectral power, Beta2 power ([20.5; 25.5] Hz) / REM EEG spectral power, Beta3 power ([25.5; 32] Hz) / REM EEG spectral power, Beta power ([15.5; 32] Hz) / REM EEG spectral power, Delta power ([0.5; 4] Hz) / REM EEG spectral power, Sigma power ([11.5; 15.5] Hz) / REM EEG spectral power, Theta power ([4; 8] Hz) / REM EEG spectral power, Total EEG power ([0.5; 32] Hz): 4 wks, whole night sleep", "protocol": "(§1) REM sleep EEG power was calculated to evaluate the effects of chronic (4-week) administration of 20 mg and 50 mg piromelatine compared to those of placebo in patients with primary insomnia. Sleep EEG was recorded in 9 different centers in the frame of a 3-arm parallel group study with a random allocation of patients to one of the three treatment group (i.e., of the 121 patients who had exploitable sleep EEG data, 42 received placebo, 39 received piromelatine 20 mg, and 40 received piromelatine 50 mg).\n(§2) Spectral power was calculated for all-night) and REM sleep for the total EEG spectrum [0.5; 32] Hz and in the following frequency bands: delta [0.5; 4] Hz, theta [4; 8] Hz, alpha [8; 13] Hz, sigma [11.5; 15.5] Hz, beta [15.5; 32] Hz, beta1 [15.5; 20.5] Hz, beta2 [20.5; 25.5] Hz, and beta3 [25.5; 32] Hz.\nNote, REM sleep is longest during the third part of the night."}, "[2]": {"test_system": "patients with primary insomnia", "experiment": "NREM sleep EEG spectral power after 4-week treatment, 3-arm parallel group study versus placebo", "format": "in vivo, human", "details": "4-wks treatment, 20 and 50 mg; compared to baseline and to placebo", "protocol": "as §1, with “NREM” for “REM”\nas §2, with “NREM” for “REM”"}},
  "note": "“Also recorded” adds a separate entry of the source.",
  "data": [
    {"smiles": "COc1ccc2[nH]cc(CCNC(=O)c3cc(=O)cco3)c2c1", "note": "[Piromelatine, N-(2-(5-methoxy-1H-indol-3-yl)ethyl)-4-oxo-4H-pyran-2-carboxamide]", "values": [
      {"measurement": "effect on REM sleep alpha power band (in words)", "setting": "[1]; 4-wks treatment, 20 and 50 mg, compared to baseline and to placebo, in particular during the longest REM period in the third part of the night sleep", "value": "increases the spectral power in the a band during REM sleep; also recorded: enhances the REM sleep alpha power band"},
      {"measurement": "effect on other frequencies during REM sleep (in words)", "setting": "[1]; patients with insomnia aged 20-80 years", "value": "minor or no changes in other frequencies"},
      {"measurement": "REM EEG spectral power, Alpha power ([8; 13] Hz)", "setting": "[1]; piromelatine 20 mg, n = 39", "value": "103.36 % of baseline values"},
      {"measurement": "REM EEG spectral power, Beta1 power ([15.5; 20.5] Hz)", "setting": "[1]; piromelatine 20 mg, n = 39", "value": "100.36 % of baseline values"},
      {"measurement": "REM EEG spectral power, Beta2 power ([20.5; 25.5] Hz)", "setting": "[1]; piromelatine 20 mg, n = 39", "value": "98.51 % of baseline values"},
      {"measurement": "REM EEG spectral power, Beta3 power ([25.5; 32] Hz)", "setting": "[1]; piromelatine 20 mg, n = 39", "value": "97.56 % of baseline values"},
      {"measurement": "REM EEG spectral power, Beta power ([15.5; 32] Hz)", "setting": "[1]; piromelatine 20 mg, n = 39", "value": "98.95 % of baseline values"},
      {"measurement": "REM EEG spectral power, Delta power ([0.5; 4] Hz)", "setting": "[1]; piromelatine 20 mg, n = 39", "value": "100.29 % of baseline values"},
      {"measurement": "REM EEG spectral power, Sigma power ([11.5; 15.5] Hz)", "setting": "[1]; piromelatine 20 mg, n = 39", "value": "100.34 % of baseline values"},
      {"measurement": "REM EEG spectral power, Theta power ([4; 8] Hz)", "setting": "[1]; piromelatine 20 mg, n = 39", "value": "101.45 % of baseline values"},
      {"measurement": "REM EEG spectral power, Total EEG power ([0.5; 32] Hz)", "setting": "[1]; piromelatine 20 mg, n = 39", "value": "99.76 % of baseline values"},
      {"measurement": "REM EEG spectral power, Beta1 power ([15.5; 20.5] Hz)", "setting": "[1]; piromelatine 50 mg, n = 40", "value": "98.19 % of baseline values"},
      {"measurement": "REM EEG spectral power, Beta2 power ([20.5; 25.5] Hz)", "setting": "[1]; piromelatine 50 mg, n = 40", "value": "99.93 % of baseline values"},
      {"measurement": "REM EEG spectral power, Beta3 power ([25.5; 32] Hz)", "setting": "[1]; piromelatine 50 mg, n = 40", "value": "97.73 % of baseline values"},
      {"measurement": "REM EEG spectral power, Beta power ([15.5; 32] Hz)", "setting": "[1]; piromelatine 50 mg, n = 40", "value": "99.55 % of baseline values"},
      {"measurement": "REM EEG spectral power, Delta power ([0.5; 4] Hz)", "setting": "[1]; piromelatine 50 mg, n = 40", "value": "103.73 % of baseline values"},
      {"measurement": "REM EEG spectral power, Sigma power ([11.5; 15.5] Hz)", "setting": "[1]; piromelatine 50 mg, n = 40", "value": "103.14 % of baseline values"},
      {"measurement": "REM EEG spectral power, Theta power ([4; 8] Hz)", "setting": "[1]; piromelatine 50 mg, n = 40", "value": "105.03 % of baseline values"},
      {"measurement": "REM EEG spectral power, Total EEG power ([0.5; 32] Hz)", "setting": "[1]; piromelatine 50 mg, n = 40", "value": "105.33 % of baseline values"},
      {"measurement": "REM EEG spectral power, Alpha power ([8; 13] Hz)", "setting": "[1]; piromelatine 50 mg, n = 40, * significant difference (P < 0.05) compared to placebo", "value": "106.55* % of baseline values"},
      {"measurement": "effect on NREM low frequency band (0.5-1.5 Hz) (in words)", "setting": "[2]", "value": "can increase the NREM low frequency band"}
    ]}
  ]
}
